According to patent US20260008818A1, “CYCLIC PEPTIDE OR SALT THEREOF, AND USES THEREOF” (FUJIFILM Corporation, priority 2023, published 2026):
Bridge positions count the residues as written; N and C are the ends. Square brackets hold non-standard residues; d marks the D form. Ends that are not written are not given here. NMeL = CN[C@@H](CC(C)C)C(=O)O; hCys = N[C@@H](CCS)C(=O)O; Orn = NCCC[C@H](N)C(=O)O

Columns and labels:
[1] = tested on: hMSC-Human Mesenchymal Stem Cells; test: Effect of maintaining MSC undifferentiated potency (gene expression); format: cell-based
Procedure: The effect of maintaining mesenchymal stem cell (MSC) undifferentiated potency of the cyclic peptide complex was evaluated.
MSC was prepared in the same manner as in Example 7.
The evaluation of the effect of maintaining the MSC undifferentiated potency was performed by the following method. First, a culture medium (hereinafter, referred to as a custom culture medium) in which bFGF was removed from PRIME-XV MSC Expansion XSFM (FUJIFILM Irvine Scientific, Inc., 91149) was prepared. Next, Prime-XV Human Fibronectin (FUJIFILM Irvine Scientific, Inc., 31002) was dissolved in PBS (Fujifilm Wako Pure Chemical Corporation, 164-23551), 2 μg/cm^2 of the solution was added to a 12-well plate used for proliferation, and the 12-well plate was allowed to stand at room temperature for 3 hours to coat the 12-well plate with fibronectin. Thereafter, the MSCs subjected to the subculture were peeled using Tryple Express (Thermo, 12604-013), washed once with a custom culture medium, suspended in a custom culture medium in which a cyclic peptide complex or bFGF (R&D Systems, 3718-GMP) was diluted to final concentrations of 3 nmol/L and 1 nmol/L, and seeded on a 12-well plate coated with fibronectin. In this case, conditions in which the cyclic peptide complex and bFGF were not added as a negative control were prepared. After culturing at 37° C. (5% CO2) for 2 nights, the culture medium was replaced by removing the supernatant of the culture medium and adding the same amount of a culture medium prepared to have the same composition as the removed culture medium. After further culturing at 37° C. (5% CO2) for 2 nights, RNA was extracted using an RNeasy Plus Mini Kit (Qiagen, 74136) according to the manufacturer's protocol. […] The expression level of each gene was normalized by setting the expression level of the well to which 1 nmol/L bFGF was added to 1.

[2] = tested on: Recombinant Human FGFR 1 alpha (IIIc) Fc Chimera Protein; test: Binding affinity of chemically synthesized cyclic peptide to immobilized FGFR by SPR; conditions: 10 nmol/L cyclic peptide, 25° C., binding amount per one molecule of FGFR, chemically synthesized product
Procedure: The binding affinity of the cyclic peptide to FGFR was evaluated using a surface plasmon resonance (SPR) method.
A CM5 sensor chip (Cytiva, 29149603) was set in Biacore-T200 (manufactured by Cytiva) which is a surface plasmon resonance device, and an HBS-EP buffer (Cytiva, BR100826) was added as a running buffer at a flow rate of 10 μL/min to equilibrate the flow channel. Next, 70 μL of a mixed aqueous solution of 0.2 mol/L 1-(3-dimethylaminopropyl)-3-ethylcarbodiimide (EDC) and 0.05 mol/L N-hydroxysuccinimide (NHS) was added to activate the sensor chip. Then, Recombinant Human FGFR 1 alpha (IIIc) Fc Chimera Protein CF (R&D systems, 658-FR-050) prepared at 50 nmol/L in an Acetate 4.5 buffer (Cytiva, BR100350) was added thereto to perform immobilization at about 5000 RU. Thereafter, the blocking treatment was performed with an ethanolamine solution. In addition, in another flow channel of the same sensor chip, blocking treatment was performed immediately after activation without immobilizing FGFR.
A cyclic peptide diluted to 10 nmol/L using HBS-EP was added to each flow channel of the FGFR-immobilized sensor chip produced above at 25° C. for 10 minutes, then HBS-EP was allowed to flow as a running buffer for 30 minutes, and the binding of the cyclic peptide to FGFR was measured. Thereafter, a regeneration treatment of removing the bound cyclic peptide was performed by repeating the flow of a regeneration liquid in which sodium chloride powder was dissolved in Glysine 1.5 (Cytiva, BR100354) to a final concentration of 0.15 mol/L for 1 minute in each flow channel twice. The binding amount of the cyclic peptide was evaluated from the difference between the measured value of Biacore-T200 in the flow channel in which FGFR was immobilized and the measured value of Biacore-T200 in the flow channel in which FGFR was not immobilated, in a case where a 10 nmol/L cyclic peptide was allowed to flow.
The binding amount of the cyclic peptide evaluated above was normalized to the binding amount of the cyclic peptide molecules per one molecule of FGFR using the molecular weights of the cyclic peptide and FGFR, and the binding affinity to FGFR was evaluated according to the following evaluation criteria. The evaluation result preferably satisfies the evaluation criteria A, B, or C.
• A: The binding amount is 0.7 molecules of the cyclic peptide/one molecule of FGFR or more. • B: The binding amount is 0.5 molecules of the cyclic peptide/one molecule of FGFR or more and less than 0.7 molecules of cyclic peptide/one molecule of FGFR. • C: The binding amount is 0.1 molecules of cyclic peptide/one molecule of FGFR or more and less than 0.5 molecules of cyclic peptide/one molecule of FGFR. • D: The binding amount is less than 0.1 molecules of the cyclic peptide/one molecule of FGFR.

[3] = Molecular stability of cyclic peptide after reducing agent (DTT) treatment, LC; format: physicochemical; conditions: residual rate after 12.6 mmol/L DTT aqueous solution, room temperature, 1 hour
Procedure: The molecular stability of the cyclic peptide was evaluated by analyzing an aqueous solution of the cyclic peptide treated with a reducing agent by liquid chromatography (LC).
The reducing agent treatment was performed under the following conditions based on the concentration of glutathione contained in the cells. 25 μL of a 0.2 mg/mL cyclic peptide aqueous solution was prepared, 58.8 μL of a 12.6 mmol/L DTT aqueous solution was added to the aqueous solution, and the mixture was incubated at room temperature for 1 hour to obtain an aqueous solution of the cyclic peptide treated with a reducing agent. The DTT aqueous solution was used by diluting a 1 mol/L (+-)-dithiothreitol (DTT) solution (FUJIFILM Wako Pure Chemical Corporation, 044-33871) with water. The total area of all the peaks in LC/MS of the cyclic peptide before the reducing agent treatment was set to 100%, and the proportion of the total area of all the peaks in LC/MS of the aqueous solution of the cyclic peptide treated with the reducing agent was determined to calculate the residual rate of the cyclic peptide, and the molecular stability was evaluated according to the following evaluation criteria. The evaluation result preferably satisfies the evaluation criteria A, B, or C.
• A: The residual rate of cyclic peptide is 90% or more. • B: The residual rate of the cyclic peptide is 70% or more and less than 90% • C: The residual rate of the cyclic peptide is 50% or more and less than 70% • D: The residual rate of the cyclic peptide is less than 50%
The LC used for the evaluation of molecular stability was set to the following conditions. • LC device: Prominence series (pump, column oven, autosampler, detector) (manufactured by Shimadzu Corporation) • Detector: photodiode array detector (SPD-M20A), measurement wavelength of 280 nm • Column: TSKgel ODS-100V, inner diameter of 4.6 mm×length of 150 mm, particle diameter of 5 μm (manufactured by Tosoh Corporation) • Eluent A: solution containing 0.1% trifluoroacetic acid as solute, and solvent is 100% water • Eluent B: solution containing 0.1% trifluoroacetic acid as solute, and solvent is 100% acetonitrile • Flow rate: 1.0 mL/min • Injection amount: 25 μL • Gradient: 20% to 50%: Eluent B (0 to 15 minutes), 100%: Eluent B (15 minutes) • Column temperature: 40° C.

[4] = 1 nmol/L bFGF versus condition without bFGF (negative control)

Row | Substance | expression level of Nanog [1, 4] | expression level of Oct4 [1, 4] | expression level of Sox2 ([1]; cyclic peptide complex 3 nmol/L or bFGF 1 nmol/L, normalized to 1 nmol/L bFGF = 1, bFGF compared with negative control) | Evaluation result of binding affinity to FGFR [2] | Evaluation result of reductive stability [3]
1 | bFGF: basic fibroblast growth factor (R&D Systems, 3718-GMP) | did not change substantially | did not change substantially | changed |  | 
2 | 381 (HXSYERLQFHGHEAPFRVXVKKK; not fully specified; Description of Artificial Sequence: Cyclic peptide) [compound 381] |  |  |  | A (The binding amount is 0.7 molecules of the cyclic peptide/one molecule of FGFR or more.) | A (The residual rate of cyclic peptide is 90% or more.)
3 | 387 (H[Orn]SYER[NMeL]IFHGHEAPFWV[hCys]VKKK; bridge 2-19; not fully specified (residue 2, bridges)) [compound 387] |  |  |  | A (The binding amount is 0.7 molecules of the cyclic peptide/one molecule of FGFR or more.) | A (The residual rate of cyclic peptide is 90% or more.)
4 | 389 (H[Orn]SYERLIFHGHEAPFWV[hCys]KKK; bridge 2-19; not fully specified (residue 2, bridges); printed as H-(Orn(acetyl))-SYERLIFHGHEAPFWV-(Hcy)-KKK) [compound 389] |  |  |  | A (The binding amount is 0.7 molecules of the cyclic peptide/one molecule of FGFR or more.) | A (The residual rate of cyclic peptide is 90% or more.)
5 | 376 (HXSYERLQFHGHEAPFRVXVKKK; not fully specified; Description of Artificial Sequence: Cyclic peptide) [compound 376] |  |  |  | A (The binding amount is 0.7 molecules of the cyclic peptide/one molecule of FGFR or more.) | A (The residual rate of cyclic peptide is 90% or more.)
6 | 378 (HKSYERLQFHGHEAPFRVXVKKK; not fully specified; Description of Artificial Sequence: Cyclic peptide) [compound 378] |  |  |  | A (The binding amount is 0.7 molecules of the cyclic peptide/one molecule of FGFR or more.) | A (The residual rate of cyclic peptide is 90% or more.)
7 | 374 (HXSYERLQFHGHEAPFRVKVKKK; not fully specified; Description of Artificial Sequence: Cyclic peptide) [compound 374] |  |  |  | A (The binding amount is 0.7 molecules of the cyclic peptide/one molecule of FGFR or more.) | A (The residual rate of cyclic peptide is 90% or more.)
